EP4603105A1, “PHARMACEUTICAL COMPOSITION CONTAINING CYCLIC COMPOUND HAVING SELECTIVE KRAS INHIBITORY EFFECT AGAINST HRAS AND NRAS” (CHUGAI SEIYAKU KABUSHIKI KAISHA, priority 2022, dated 2024)
Where a SMILES comes first, the peptide text is derived from it. Bridges are numbered along the chain shown (N, C = ends). [ ]: non-standard residue; d: D form. The star is where a group is joined. hPhe(3-Cl-4-CF3) = N[C@@H](CCc1ccc(C(F)(F)F)c(Cl)c1)C(=O)O; NPrPhe(4-Me) = CCCN[C@@H](Cc1ccc(C)cc1)C(=O)O; NMeGly(cPent) = CN[C@H](C(=O)O)C1CCCC1; NMeD = CN[C@@H](CC(=O)O)C(=O)O; NMeL = CN[C@@H](CC(C)C)C(=O)O; Morpholide = C1CN(*)CCO1; Ac5c = NC1(C(=O)O)CCCC1; Sar = CNCC(=O)O

Assays:
HRAS wild-type protein = HRAS wild-type protein (Homo sapiens, UniProt P01112); test: Binding to HRAS by surface plasmon resonance (SPR), KD and KD ratio to KRAS
Summary of the method: (§1)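 Compound binding is evaluated by SPR single-cycle kinetics, with concentrations added intermittently from low to high for 75 s each. Target surfaces carry GDP-loaded biotinylated Avi-RAS at about 100–300 RU, regenerated after each cycle; temperature 30°C. A 1:1 binding model gives KD.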

[1] = target: GDP-bound NRAS wild-type protein (Homo sapiens, UniProt P01111); test: Binding to NRAS by surface plasmon resonance (SPR), KD and KD ratio to KRAS
Summary of the method: as §1

[2] = system: human lung cancer strain NCI-H441; type: cell-based
Summary of the method: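 Proliferation was scored by […] measured after the reagent was added to cultures kept at 37°C in 5% carbon dioxide.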

[3] = ratio of KD for HRAS wild-type protein to KD for KRAS
[4] = ratio of KD for GDP-bound NRAS wild-type protein to KD for KRAS
[5] = ratio of the KD value with respect to HRAS wild-type protein to the KD value with respect to KRAS
[6] = ratio of the KD value with respect to GDP-bound NRAS wild-type protein to the KD value with respect to KRAS

GDP-bound NRAS wild-type protein, sequence (P01111 whole entry): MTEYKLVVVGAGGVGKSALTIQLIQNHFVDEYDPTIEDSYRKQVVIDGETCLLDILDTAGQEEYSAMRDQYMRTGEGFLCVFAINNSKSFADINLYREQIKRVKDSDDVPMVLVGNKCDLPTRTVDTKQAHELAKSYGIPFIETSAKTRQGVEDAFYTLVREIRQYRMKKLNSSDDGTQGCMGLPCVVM
HRAS wild-type protein, sequence (P01112 whole entry): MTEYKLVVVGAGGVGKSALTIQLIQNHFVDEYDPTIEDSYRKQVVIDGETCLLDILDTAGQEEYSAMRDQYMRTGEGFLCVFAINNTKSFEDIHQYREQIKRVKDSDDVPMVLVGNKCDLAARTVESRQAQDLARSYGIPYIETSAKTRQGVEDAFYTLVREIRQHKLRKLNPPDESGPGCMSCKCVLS

Row | SMILES | HRAS /KRAS (HRAS wild-type protein; [3]) | NRAS /KRAS [1, 4] | IC50 [2] [µM] | HRAS /KRAS (HRAS wild-type protein; [5]) | NRAS /KRAS [1, 6] | HRAS /KRAS (HRAS wild-type protein; ratio of KD value for HRAS wild-type protein to KD value for KRAS (SPR)) | NRAS /KRAS ([1]; ratio of KD value for GDP-bound NRAS wild-type protein to KD value for KRAS (SPR))
1 | CCO[C@@H]1C[C@H]2C(=O)NC3(CCC3)C(=O)N(C)[C@@H](C3CCCC3)C(=O)N(C)[C@H](C(=O)N(C)C)CC(=O)N(C)[C@@H](CC)C(=O)N[C@@H]([C@@H](C)CC)C(=O)N[C@@H](C)C(=O)N(C)[C@H]3C/C=C\CCN(C3=O)[C@@H](Cc3ccc(C(F)(F)F)cc3)C(=O)N(C)CC(=O)N[C@@H](CCc3cc(F)c(C(F)(F)F)c(F)c3)C(=O)N2C1 [PP1065] | B (a compound having 3 or more and less than 10 is denoted as B) | A (a compound having 10 or more and less than 20 is denoted as A) | 0.0967 |  |  |  | 
2 | CCCN1C(=O)CN(C)C(=O)CN(C)C(=O)[C@H]([C@@H](C)CC)NC(=O)[C@H](CC(C)C)N(C)C(=O)C[C@@H](C(=O)N2CCOCC2)N(C)C(=O)[C@H](C2CCCC2)N(C)C(=O)C2(CCCC2)NC(=O)[C@@H]2CCCN2C(=O)[C@H](CCc2ccc(C(F)(F)F)c(Cl)c2)NC(=O)CN(C)C(=O)[C@@H]1Cc1ccc(C)cc1 [PP0059] ([NMeL]I[Sar][Sar][NPrPhe(4-Me)][Sar][hPhe(3-Cl-4-CF3)]P[Ac5c][NMeGly(cPent)][NMeD]-Morpholide; lactam N-11) | C (A compound having a KD ratio of 0.1 or more and less than 3 is denoted as C) | B (a compound having 3 or more and less than 10 is denoted as B) | 0.0061 |  |  |  | 
3 | CCO[C@@H]1C[C@H]2C(=O)NC3(CCC3)C(=O)N(C)[C@@H](C3CCCC3)C(=O)N(C)[C@H](C(=O)N(C)C)CC(=O)N(C)[C@H]3CCCCCc4ccc(cc4)C[C@@H](C(=O)N(C)CC(=O)N[C@@H](CCc4ccc(C(F)(F)F)c(OC)c4)C(=O)N2C1)N1CC/C=C\C[C@@H](C1=O)N(C)C(=O)CN(C)C(=O)[C@H]([C@@H](C)CC)NC3=O [PP2262] |  |  | 0.0038 | B (a compound having 3 or more and less than 10 is denoted as B) | A (a compound having 10 or more and less than 20 is denoted as A) |  | 
4 | CCO[C@@H]1C[C@H]2C(=O)NC3(CC(C)(C)C3)C(=O)N(C)[C@@H](C3CCCC3)C(=O)N3CCC[C@@H]3CC(=O)N(C)[C@@H](CC3CC3)C(=O)N[C@@H]([C@@H](C)CC)C(=O)N(C)CC(=O)N(C)[C@H]3C/C=C\CCN(C3=O)[C@@H](Cc3ccc(C(F)(F)F)cc3)C(=O)N(C)CC(=O)N[C@@H](CCc3cc(F)c(C(F)(F)F)c(F)c3)C(=O)N2C1 [PP1611] |  |  | 0.028 |  |  | B (a compound having 3 or more and less than 10 is denoted as B) | B (a compound having 3 or more and less than 10 is denoted as B)
5 | CC[C@H](C)[C@@H]1NC(=O)[C@H](CC(C)C)N(C)C(=O)C[C@@H](C(=O)N2CCOCC2)N(C)C(=O)[C@H](C2CCCC2)N(C)C(=O)C2(CCCC2)NC(=O)[C@@H]2CCCN2C(=O)[C@H](CCc2ccc(C(F)(F)F)c(Cl)c2)NC(=O)CN(C)C(=O)[C@H](Cc2ccc(C)cc2)N2CC/C=C\C[C@@H](C2=O)N(C)C(=O)CN(C)C1=O [PP0461] |  |  | 0.0232 | A (a compound having 10 or more and less than 20 is denoted as A) | A (a compound having 10 or more and less than 20 is denoted as A) |  | 
6 | CCC[C@H]1C(=O)N[C@@H]([C@@H](C)CC)C(=O)N(C)CC(=O)N(C)[C@H]2C/C=C\CCN(C2=O)[C@@H](Cc2ccc(C(F)(F)F)cc2)C(=O)N(C)CC(=O)N[C@@H](CCc2ccc(C(F)(F)F)c(Cl)c2)C(=O)N2C[C@H](OCC)C[C@H]2C(=O)NC2(CC(C)(C)C2)C(=O)N(C)[C@@H](CC(C)C)C(=O)N(C)[C@H](C(=O)N(C)C)CC(=O)N1C [PP2977] | A (a compound having 10 or more and less than 20 is denoted as A) | A (a compound having 10 or more and less than 20 is denoted as A) | 0.0081 |  |  |  | 
